{
  "source": "ChEMBL document CHEMBL1151379",
  "about": "“Chemical Constituents of Hyptis suaveolens. Part I. Spectral and Biological Studies on a Triterpene Acid” (1981)",
  "system": "Bipolaris oryzae",
  "assay": "Antifungal activity against Helminthosporium oryzae at 1000 ppm",
  "format": "functional",
  "data": [
    {"compound": "C[C@H]1[C@H](C)CC[C@]2(C)CC[C@]3(C(=O)O)C(=CC[C@@H]4[C@@]5(C)CC[C@H](O)C(C)(C)[C@@H]5CC[C@]43C)[C@H]12", "values": [
      {"measurement": "Activity", "value": "<10", "unit": "%"}
    ]}
  ]
}
